Our source for the EC50 values is patent US20260022094A1, “Compounds for the Treatment of Neurodegenerative Diseases” (Celgene Corporation, priority 2022, published 2026).

In this assay the target is T1, S1P5 receptors (Homo sapiens, UniProt Q9H228).
T1 construct: expressed in transfected cells; host or cells: CHO cells (membranes)
The assay is described as follows: [35S]-GTPγS binding assay on CHO-S1P5 membranes (S1P5 agonism). The class given is biochemical. As to conditions: membranes of CHO cells expressing recombinant S1P5; measure of S1P5 agonism. On the procedure: CHO cells expressing recombinant S1P5 receptors were cultured in 500 cm^2 culture trays and, once confluent, rinsed and detached with cell-lifting buffer (10 mM HEPES, 154 mM NaCl, 6.85 mM EDTA, pH 7.4). Cells were then pelleted by centrifugation, resuspended, and homogenized in membrane preparation buffer (10 mM HEPES and 10 mM EDTA, pH 7.4) using a Polytron PT 1200E homogenizer (Kinematica, Luzern, Switzerland). Cellular proteins were pelleted by centrifugation at 48,000×g at 4° C. for 30 minutes. The resulting supernatant was discarded, and the pellet was re-suspended again in membrane preparation buffer, homogenized for a second time, and then centrifuged again as described above. The final cellular protein pellet was suspended in ice cold resuspension buffer (10 mM HEPES and 0.1 mM EDTA, pH 7.4), divided into aliquots, and stored at −80° C. until use.
Functional binding assays for [^35S]-GTPγS were performed in 96-well non-binding surface plates with a final volume of 200 μL. The test compounds were serially diluted in DMSO and added to assay plates using a Tecan D300E digital printer with a total volume of 0.4 μL. The control sphingosine-1-phosphate (SIP) was prepared separately by preparing a 400 µM stock solution from a 100 nmol pellet of S1P in 10 mM Na2CO3 with 2% β-cyclodextrin. The serial dilution of S1P was done using complete assay buffer (20 mM HEPES, 10 mM MgCl2, 100 mM NaCl, 1 mM EDTA, 0.1% fatty acid free bovine serum albumin (BSA), and 30 μg/mL saponin, pH 7.4) and transferred to wells already containing 0.4 μL DMSO. All the wells were then loaded to a total volume of 40 μL of complete assay buffer, except the non-specific binding (NSB) wells. For NSB wells, 40 μL/well of 50 μM GTPγS (Sigma Aldrich, cat #G8634, St. Louis, MO) was added to wells containing 0.4 μL of DMSO. The assay was started by the addition of 120 μL/well of CHO-SIP receptor membrane solution containing 40 μg/mL of membrane protein, 16.67 μM guanosine diphosphate (GDP; Sigma Aldrich, cat #G7127, St. Louis, MO), and 2.5 mg/mL of WGA PVT SPA beads in complete buffer. Assay plates were then sealed and incubated at room temperature with gentle agitation for 30 minutes. Next, 40 μL/well of 1 nM of [^35S]-GTPγS (PerkinElmer, cat #NEG030X^250UC, Waltham, MA) in basic assay buffer (20 mM HEPES, 10 mM MgCl2, 100 mM NaCl, and 1 mM EDTA, pH7.4) was added to the assay plates to yield a final concentration of […] and the plates were further incubated for 40 minutes at room temperature with gentle agitation. The assay was terminated by centrifugation of the plates at 1000 rpm for 3 minutes using an Eppendorf 5810R centrifuge (Eppendorf, Hamburg, Germany) and G protein bound radioactivity was quantitated using a MicroBeta2 microplate scintillation counter (PerkinElmer, Waltham, MA). As G protein bound radioactivity directly correlates to receptor activation and coupling to the G protein, this assay is a measure of S1P5 agonism.
(GTPγS is a poorly hydrolysed GTP analogue; its binding reports G protein activation.)

T1 sequence (Q9H228 whole entry): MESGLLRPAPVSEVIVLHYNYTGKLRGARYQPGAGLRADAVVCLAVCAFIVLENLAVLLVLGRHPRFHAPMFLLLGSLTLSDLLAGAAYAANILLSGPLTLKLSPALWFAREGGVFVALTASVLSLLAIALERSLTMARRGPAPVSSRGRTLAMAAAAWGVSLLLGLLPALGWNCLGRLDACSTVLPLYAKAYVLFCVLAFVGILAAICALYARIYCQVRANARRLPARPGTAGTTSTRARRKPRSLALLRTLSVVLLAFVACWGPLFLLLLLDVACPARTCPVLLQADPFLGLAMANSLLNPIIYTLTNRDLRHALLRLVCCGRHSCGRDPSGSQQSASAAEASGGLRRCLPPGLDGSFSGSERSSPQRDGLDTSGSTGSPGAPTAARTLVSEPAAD

Consider `Cc1cc2c(cc1-c1ccc(C3CC3)c(Cl)c1)CCC2N1CC(C)(O)C1` (single isomer, unassigned) [Compound 21a, 1-[5-(3-chloro-4-cyclopropyl-phenyl)-6-methyl-indan-1-yl]-3-methyl-azetidin-3-ol], for which the EC50 fell in the range of 10 to 100 nM.
The figure for `Cc1cc2c(cc1-c1ccc(C3CC3)c(Cl)c1)CCC2N1CC(C)(O)C1` (single isomer, unassigned) [Compound 21b, 1-[5-(3-chloro-4-cyclopropyl-phenyl)-6-methyl-indan-1-yl]-3-methyl-azetidin-3-ol] is 1 to 10 nM.
Consider `Cc1cc2c(cc1C#Cc1cccc(F)c1)CCC2N1CC(C)(O)C1` (single isomer, unassigned) [Compound 22a, 1-[5-[2-(3-fluorophenyl)ethynyl]-6-methyl-indan-1-yl]-3-methyl-azetidin-3-ol], for which the EC50 was 10 to 100 nM.
With `Cc1cc2c(cc1C#Cc1cccc(F)c1)CCC2N1CC(C)(O)C1` (single isomer, unassigned) [Compound 22b, 1-[5-[2-(3-fluorophenyl)ethynyl]-6-methyl-indan-1-yl]-3-methyl-azetidin-3-ol], the EC50 lay within 10 to 100 nM.
The figure for `Cc1cc2c(cc1CCc1c(Cl)cccc1Cl)CCC2N1CC(C)(O)C1` (single isomer, unassigned) [Compound 23a, 1-[5-[2-(2,6-dichlorophenyl)ethyl]-6-methyl-indan-1-yl]-3-methyl-azetidin-3-ol] is 10 to 100 nM.
Consider `Cc1cc2c(cc1CCc1c(Cl)cccc1Cl)CCC2N1CC(C)(O)C1` (single isomer, unassigned) [Compound 23b, 1-[5-[2-(2,6-dichlorophenyl)ethyl]-6-methyl-indan-1-yl]-3-methyl-azetidin-3-ol], for which the EC50 is 10 to 100 nM.
The figure for `Cc1cc2c(cc1OCc1c(Cl)cccc1Cl)CCC2N1CC(C)(O)C1` (single isomer, unassigned) [Compound 24a, 1-[5-[(2,6-dichlorophenyl)methoxy]-6-methyl-indan-1-yl]-3-methyl-azetidin-3-ol] is 1 to 10 nM.
`Cc1cc2c(cc1OCc1c(Cl)cccc1Cl)CCC2N1CC(C)(O)C1` (single isomer, unassigned) [Compound 24b, 1-[5-[(2,6-dichlorophenyl)methoxy]-6-methyl-indan-1-yl]-3-methyl-azetidin-3-ol]: the EC50 fell in the range of 1 to 10 nM.
The figure for `Cc1cc2c(c(C)c1-c1ccc(C3CC3)c(Cl)c1)CCC2N1CC(C)(O)C1` (single isomer, unassigned) [Compound 25a, 1-(5-(3-chloro-4-cyclopropylphenyl)-4,6-dimethyl-2,3-dihydro-1H-inden-1-yl)-3-methylazetidin-3-ol] is 1 to 10 nM; for `Cc1cc2c(c(C)c1-c1ccc(C3CC3)c(Cl)c1)CCC2N1CC(C)(O)C1` (single isomer, unassigned) [Compound 25b, 1-(5-(3-chloro-4-cyclopropylphenyl)-4,6-dimethyl-2,3-dihydro-1H-inden-1-yl)-3-methylazetidin-3-ol] it is 1 to 10 nM.
As to `Cc1cc(-c2ccc(C3CC3)c(Cl)c2)c(C)c2c1C(N1CC(C)(O)C1)CC2` (single isomer, unassigned) [Compound 26a, 1-[5-(3-chloro-4-cyclopropyl-phenyl)-4,7-dimethyl-indan-1-yl]-3-methyl-azetidin-3-ol], the EC50 was 1 to 10 nM.
The figure for `Cc1cc(-c2ccc(C3CC3)c(Cl)c2)c(C)c2c1C(N1CC(C)(O)C1)CC2` (single isomer, unassigned) [Compound 26b, 1-[5-(3-chloro-4-cyclopropyl-phenyl)-4,7-dimethyl-indan-1-yl]-3-methyl-azetidin-3-ol] is 1 to 10 nM; for `Cc1c(-c2ccc(C3CC3)c(Cl)c2)cc2c(c1C)C(N1CC(C)(O)C1)CC2` (single isomer, unassigned) [Compound 27a, 1-(5-(3-chloro-4-cyclopropylphenyl)-6,7-dimethyl-2,3-dihydro-1H-inden-1-yl)-3-methylazetidin-3-ol] it is 1 to 10 nM; for `Cc1c(-c2ccc(C3CC3)c(Cl)c2)cc2c(c1C)C(N1CC(C)(O)C1)CC2` (single isomer, unassigned) [Compound 27b, 1-(5-(3-chloro-4-cyclopropylphenyl)-6,7-dimethyl-2,3-dihydro-1H-inden-1-yl)-3-methylazetidin-3-ol] it is 10 to 100 nM.
The figure for `CC1(O)CCN(C2CCc3cc(-c4ccc(C5CC5)c(Cl)c4)ccc32)CC1` (stereo not shown) [Compound 6, 1-(5-(3-chloro-4-cyclopropylphenyl)-2,3-dihydro-1H-inden-1-yl)-4-methylpiperidin-4-ol] is 1000 to 10000 nM.
As for `CC1(O)CCN(C2CCc3cc(-c4ccc(C5CC5)c(Cl)c4)ccc32)C1` (stereo not shown) [Compound 7, 1-(5-(3-chloro-4-cyclopropylphenyl)-2,3-dihydro-1H-inden-1-yl)-3-methylpyrrolidin-3-ol], the EC50 lay in the range of 100 to 1000 nM.
The figure for `CC1(O)CCN(C2CCc3cc(C4CN(c5c(Cl)cccc5Cl)C4)ccc32)CC1` (stereo not shown) [Compound 8, 1-(5-(1-(2,6-dichlorophenyl)azetidin-3-yl)-2,3-dihydro-1H-inden-1-yl)-4-methyl-piperidin-4-ol] is 1000 to 10000 nM; for `CC1(O)CCN(C2CCc3cc(C4CN(c5c(Cl)cccc5Cl)C4)ccc32)C1` (stereo not shown) [Compound 9, 1-(5-(1-(2,6-dichlorophenyl)azetidin-3-yl)-2,3-dihydro-1H-inden-1-yl)-3-methylpyrrolidin-3-ol] it is 100 to 1000 nM.
The figure for `Cc1cc(-c2ccc(C3CC3)c(Cl)c2)cc2c1C(N1CCC(C)(O)CC1)CC2` (stereo not shown) [Compound 11, 1-(5-(3-chloro-4-cyclopropylphenyl)-7-methyl-2,3-dihydro-1H-inden-1-yl)-4-methylpiperidin-4-ol] is 1000 to 10000 nM; for `Cc1cc(-c2ccc(C3CC3)c(Cl)c2)cc2c1C(N1CCC(C)(O)C1)CC2` (stereo not shown) [Compound 12, 1-(5-(3-chloro-4-cyclopropylphenyl)-7-methyl-2,3-dihydro-1H-inden-1-yl)-3-methylpyrrolidin-3-ol] it is 100 to 1000 nM; for `CC1(O)CN(Cc2ccc(C#Cc3c(F)cccc3F)cc2)C1` [Compound 28, 1-(4-((2,6-difluoro-phenyl)ethynyl)benzyl)-3-methylazetidin-3-ol] it is 100 to 1000 nM.
The figure for `CC1(O)CN(Cc2ccc(C#Cc3cccc(F)c3)cc2)C1` [Compound 29, 1-(4-((3-fluorophenyl)-ethynyl)benzyl)-3-methylazetidin-3-ol] is 100 to 1000 nM; for `CC1(O)CCN(Cc2ccc(C3CN(c4c(Cl)cccc4Cl)C3)cc2)CC1` [Compound 30, 1-(4-(1-(2,6-dichlorophenyl)azetidin-3-yl)benzyl)-4-methylpiperidin-4-ol] it is 1000 to 10000 nM.
Regarding `CC1(O)CN(Cc2ccc(C3CN(c4c(Cl)cccc4Cl)C3)cc2)C1` [Compound 31, 1-(4-(1-(2,6-dichlorophenyl)azetidin-3-yl)benzyl)-3-methylazetidin-3-ol], the EC50 fell in the range of 10 to 100 nM.
The figure for `CC1(O)CCN(Cc2ccc(N3CC(c4c(Cl)cccc4Cl)C3)cc2)CC1` [Compound 32, 1-(4-(3-(2,6-dichlorophenyl)azetidin-1-yl)benzyl)-4-methylpiperidin-4-ol] is 1000 to 10000 nM; for `CC1(O)CN(Cc2ccc(N3CC(c4c(Cl)cccc4Cl)C3)cc2)C1` [Compound 33, 1-(4-(3-(2,6-dichlorophenyl)azetidin-1-yl)benzyl)-3-methylazetidin-3-ol] it is 100 to 1000 nM.
The figure for `Cc1cc(C2CN(c3c(Cl)cccc3Cl)C2)cc(C)c1CN1CCC(C)(O)CC1` [Compound 34, 1-(4-(1-(2,6-dichlorophenyl)azetidin-3-yl)-2,6-dimethylbenzyl)-4-methylpiperidin-4-ol] is 100 to 1000 nM; for `Cc1cc(C2CN(c3c(Cl)cccc3Cl)C2)cc(C)c1CN1CC(C)(O)C1` [Compound 35, 1-[[4-[1-(2,6-dichlorophenyl)azetidin-3-yl]-2,6-dimethyl-phenyl]methyl]-3-methyl-azetidin-3-ol] it is 10 to 100 nM.

For orientation: EC50 means the midpoint of the concentration-response curve.
